Patent US8633242B2, “Benzylidene indanones and processes for preparation and use thereof” (Council of Scientific and Industrial Research, priority 2011, dated 2014)

Legend:
A549 (Lung) = test: Sulphorhodamine B cytotoxicity assay, A549; assay type: cell-based, human; settings: Homo sapiens, A549; for IC50: SRB assay, 48 hours incubation, read-out: Human cancer cell lines IC50, A549 (Lung)
Procedure: (§1) The benzylidene analogues were evaluated by Sulphorhodamine B Assay as per reported method [Skehan et al., J. Natl. Cancer Inst. 1990, 82, 1107]. The human cancer cell lines procured from National Cancer institute, Frederick, U.S.A. were used in present study. Cells were grown in tissue culture flasks in complete growth medium (RPMI-1640 medium with 2 mM glutamine, pH 7.4 supplemented with 10% fetal bovine serum, 100 μg/ml streptomycin and 100 units/ml penicillin) in a carbon dioxide incubator (37° C., 5% CO2, 90% RH). The cells at subconfluent stage were harvested from the flask by treatment with trypsin (0.05% in PBS (pH 7.4) containing 0.02% EDTA). Cells with viability of more than 98%, as determined by trypan blue exclusion, were used for determination of cytotoxicity. The cell suspension required concentration of cells was prepared in complete growth medium. Stock solution of 2×10^−2 M of compounds were prepared in DMSO and further dilution was carried out complete growth medium containing 50 μg/ml of gentamycin to obtained working test solution of required concentration. In vitro cytotoxicity against various human cancer cell lines was determined using 96-well cell culture plates. The 100 μl of cell suspension was added to each well of the 96-well cell culture plates. The cells were allowed to grow in CO2 incubator (37° C., 5% CO2, 90% RH) for 24 hours. The test materials in complete growth medium (100 μl) were added after 24 hours incubation to the wells containing cell suspension. The plates were further incubated for 48 hours (37° C. in an atmosphere of 5% CO2 and 90% relative humidity) in a carbon dioxide incubator after addition of test material and then the cell growth was stopped by gently layering trichloroacetic acid (50% TCA, 50 μl) on top of the medium in all the wells. The plates were incubated at 4° C. for one hour to fix the cells attached to the bottom of the wells. The liquid of all the wells was gently pipetted out and discarded. The plates were washed five times with distilled water to remove TCA, growth medium low molecular weight metabolites, serum proteins etc. and air-dried. Cell growth was measured by staining with sulforhodamine B dye. The adsorbed dye was dissolved in Tris-HCl Buffer (100 μl/well, 0.01M, pH 10.4) and plates were gently stirred for 10 minutes on a mechanical stirrer. The optical density (OD) was recorded on ELISA reader at 540 nm. 5-Fluorouracil, Paclitaxel (Taxol), Mitomycin-c and Adriamycin were used as positive controls.

PC-3 (prostate) = test: Sulphorhodamine B cytotoxicity assay, PC-3; assay type: cell-based, human; design: key to Human cancer cell lines IC50, PC-3 (prostate): Inactive: inactive, if IC50 > 100 μM; settings: for IC50: Homo sapiens, read-out: Human cancer cell lines IC50, PC-3 (prostate); for IC50 / Human cancer cell lines IC50, PC-3 (prostate): SRB assay, 48 hours incubation
Procedure: as §1

HCT (Colon) = test: Sulphorhodamine B cytotoxicity assay, HCT; assay type: cell-based, human; design: key to Human cancer cell lines IC50, HCT (Colon): Inactive: inactive, if IC50 > 100 μM; settings: for Human cancer cell lines IC50, HCT (Colon) / IC50: SRB assay, 48 hours incubation; for IC50: read-out: Human cancer cell lines IC50, HCT (Colon)
Procedure: as §1

THP-1 (Leukemia) = test: Sulphorhodamine B cytotoxicity assay, THP-1; assay type: cell-based, human; settings: for IC50: SRB assay, 48 hours incubation, read-out: Human cancer cell lines IC50, THP-1 (Leukemia)
Procedure: as §1

HeLa (Cervix) = test: Sulphorhodamine B cytotoxicity assay, HeLa; assay type: cell-based, human; design: key to Human cancer cell lines IC50, HeLa (Cervix): Inactive: inactive, if IC50 > 100 μM; settings: for Human cancer cell lines IC50, HeLa (Cervix) / IC50: SRB assay, 48 hours incubation; for IC50: read-out: Human cancer cell lines IC50, HeLa (Cervix)
Procedure: as §1

MCF-7 (Breast cancer) = test: Sulphorhodamine B cytotoxicity assay, MCF-7; assay type: cell-based, human; settings: for IC50: SRB assay, 48 hours incubation, read-out: Human cancer cell lines IC50, MCF-7 (Breast cancer)
Procedure: as §1

DU-145 (prostate) = test: Sulphorhodamine B cytotoxicity assay, DU-145; assay type: cell-based, human; design: key to Human cancer cell lines IC50, DU-145 (prostate): Inactive: inactive, if IC50 > 100 μM; settings: SRB assay, 48 hours incubation; for IC50: Homo sapiens, DU-145, read-out: Human cancer cell lines IC50, DU-145 (prostate)
Procedure: as §1

tubulin protein = test: In-vitro tubulin polymerisation inhibition assay; assay type: biochemical; design: key to Tubulin polymerisation inhibition IC50: Inactive: inactive, if IC50 > 10 μM; settings: for IC50: read-out: Tubulin polymerisation inhibition IC50; for IC50 / Tubulin polymerisation inhibition IC50: tubulin 3 mg/mL, 37° C., 340 nm, 1 h
Procedure: The tubulin polymerization experiment was performed using ‘assay kit’ (Cytoskeleton USA) following manufacturer's protocol based on the procedure described by of Shelanski et al. (1973) and Lee et al. (1977). Briefly, tubulin protein (3 mg/mL) in tubulin polymerization buffer (80 mM PIPES, pH 6.9, 2 mM MgCl2, 0.5 mM EGTA, 1 mM GTP and 15% glycerol) was placed in pre-warmed 96-well microtiter plates at 37° C. in the presence of test compounds with variable concentrations. All samples were mixed well and polymerization was monitored kinetically at 340 nm every min for 1 h using a Spectramax plate reader. Podophyllotoxin and etoposide were used as positive controls and DMSO as negative control. The IC50 value was determined from dose-dependent analysis and is defined as the concentration that inhibits the rate of polymerization by 50%.
Podophyllotoxin and etoposide, standard tubulin polymerisation inhibitors were used as positive controls.

## COc1cc(OC)c(OC)cc1/C=C1\C(=O)c2cc(OC)c(OC)c(OC)c2C1c1cc(OC)c(OC)c(OC)c1 (stereo not drawn) [Compound 16, 2-(2″,4″,5″-trimethoxybenzylidene), 3-(3′,4′,5′-trimethoxyphenyl)-4,5,6-trimethoxy indan-1-one]
A549 (Lung)
  IC50: 87.2 µM
PC-3 (prostate)
  IC50: 64.9 µM
HCT (Colon)
  Human cancer cell lines IC50, HCT (Colon): Inactive
THP-1 (Leukemia); Homo sapiens, THP-1
  IC50: 81.5 µM
HeLa (Cervix)
  Human cancer cell lines IC50, HeLa (Cervix): Inactive
MCF-7 (Breast cancer); Homo sapiens, MCF7
  IC50: 56.5 µM
DU-145 (prostate)
  Human cancer cell lines IC50, DU-145 (prostate): Inactive
Tubulin protein
  inhibition of tubulin polymerisation, in words: strong inhibition
  IC50: 4.21 µM
other
  melting point: 203 to 205 °C

## COc1cc(C2C(=Cc3ccccc3)C(=O)c3cc(OC)c(OC)c(OC)c32)cc(OC)c1OC (stereo not drawn) [Compound 14, 2-benzylidene, 3-(3′,4′,5′-trimethoxyphenyl)-4,5,6-trimethoxy indan-1-one]
A549 (Lung)
  IC50: 47.5 µM
PC-3 (prostate)
  IC50: 50.6 µM
HCT (Colon); Homo sapiens
  IC50: 14.9 µM
THP-1 (Leukemia); Homo sapiens, THP-1
  IC50: 32.7 µM
HeLa (Cervix); Homo sapiens, HeLa
  IC50: 14.1 µM
MCF-7 (Breast cancer); Homo sapiens, MCF7
  IC50: 42.5 µM
DU-145 (prostate)
  Human cancer cell lines IC50, DU-145 (prostate): Inactive
Tubulin protein
  Tubulin polymerisation inhibition IC50: Inactive
other
  melting point: 139 to 141 °C

## COc1cc(C2/C(=C/c3ccc(C(F)(F)F)cc3)C(=O)c3cc(OC)c(OC)c(OC)c32)cc(OC)c1OC (stereo not drawn) [Compound 20, 2-(4″-trifluoromethylbenzylidene), 3-(3′,4′,5′-trimethoxyphenyl)-4,5,6-trimethoxy indan-1-one]
A549 (Lung)
  IC50: 61.5 µM
PC-3 (prostate)
  IC50: 27.9 µM
HCT (Colon); Homo sapiens
  IC50: 92 µM
THP-1 (Leukemia)
  activity against leukemia cell lines (THP), in words: potent activity
THP-1 (Leukemia); Homo sapiens, THP-1
  IC50: 8.67 µM
HeLa (Cervix)
  Human cancer cell lines IC50, HeLa (Cervix): Inactive
MCF-7 (Breast cancer); Homo sapiens, MCF7
  IC50: 68.9 µM
DU-145 (prostate)
  Human cancer cell lines IC50, DU-145 (prostate): Inactive
Tubulin protein
  inhibition of tubulin polymerisation, in words: strong inhibition
  IC50: 0.6 µM
other
  melting point: 188 to 190 °C

## COc1cc(C2/C(=C/c3ccc(F)cc3)C(=O)c3cc(OC)c(OC)c(OC)c32)cc(OC)c1OC (stereo not drawn) [Compound 18, 2-(4″-fluorobenzylidene), 3-(3′,4′,5′-trimethoxyphenyl)-4,5,6-trimethoxy indan-1-one]
A549 (Lung)
  IC50: 26.9 µM
PC-3 (prostate)
  IC50: 38.6 µM
HCT (Colon)
  Human cancer cell lines IC50, HCT (Colon): Inactive
THP-1 (Leukemia)
  activity against leukemia cell lines (THP), in words: potent activity
THP-1 (Leukemia); Homo sapiens, THP-1
  IC50: 2.88 µM
HeLa (Cervix); Homo sapiens, HeLa
  IC50: 66.5 µM
MCF-7 (Breast cancer)
  anticancer activity against human breast cancer cells (MCF-7), in words: potent anticancer activity
MCF-7 (Breast cancer); Homo sapiens, MCF7
  IC50: 0.68 µM
DU-145 (prostate)
  IC50: 54.1 µM
Tubulin protein
  inhibition of tubulin polymerisation, in words: strong inhibition
  IC50: 0.73 µM
other
  melting point: 156 to 158 °C

## O=c1[nH]cc(F)c(=O)[nH]1 [5-Fluorouracil, reference compound]
HCT (Colon); Homo sapiens, positive control at 20 μM
  inhibition at 20 µM: 65%
THP-1 (Leukemia); Homo sapiens, THP-1, positive control at 20 μM
  inhibition at 20 µM: 74%
HeLa (Cervix); Homo sapiens, HeLa, positive control at 20 μM
  inhibition at 20 µM: 70%

## COc1cccc2c1C(=O)c1c(O)c3c(c(O)c1C2=O)C[C@@](O)(C(=O)CO)C[C@@H]3O[C@H]1C[C@H](N)[C@H](O)[C@H](C)O1 [Adriamycin, reference compound]
MCF-7 (Breast cancer); Homo sapiens, MCF7, positive control at 1 μM
  inhibition at 1 µM: 65%

## COc1cc([C@@H]2c3cc4c(cc3[C@H](O)[C@H]3COC(=O)[C@H]23)OCO4)cc(OC)c1OC [Podophyllotoxin, reference compound]
A549 (Lung)
  IC50: < 1 µM
PC-3 (prostate)
  IC50: 91.5 µM
HCT (Colon); Homo sapiens
  IC50: < 1 µM
THP-1 (Leukemia); Homo sapiens, THP-1
  IC50: < 1 µM
HeLa (Cervix); Homo sapiens, HeLa
  IC50: < 1 µM
MCF-7 (Breast cancer); Homo sapiens, MCF7
  IC50: < 1 µM
DU-145 (prostate)
  IC50: 91.5 µM
Tubulin protein
  IC50: […]

## CO[C@@]12[C@H](COC(N)=O)C3=C(C(=O)C(C)=C(N)C3=O)N1C[C@@H]1N[C@@H]12 [Mitomycin-c, reference compound]
PC-3 (prostate); positive control at 1 μM
  % Inhibition, PC-3 (Prostate): 61%

## COc1ccccc1/C=C1\C(=O)c2cc(OC)c(OC)c(OC)c2C1c1cc(OC)c(OC)c(OC)c1 (stereo not drawn) [Compound 19, 2-(2″-methoxybenzylidene), 3-(3′,4′,5′-trimethoxyphenyl)-4,5,6-trimethoxy indan-1-one]
A549 (Lung)
  IC50: 62.6 µM
PC-3 (prostate)
  Human cancer cell lines IC50, PC-3 (prostate): Inactive
HCT (Colon)
  Human cancer cell lines IC50, HCT (Colon): Inactive
THP-1 (Leukemia); Homo sapiens, THP-1
  IC50: 29.3 µM
HeLa (Cervix)
  Human cancer cell lines IC50, HeLa (Cervix): Inactive
DU-145 (prostate)
  IC50: 21.5 µM
Tubulin protein
  Tubulin polymerisation inhibition IC50: Inactive
other
  melting point: 191 to 192 °C

## COc1cc([C@@H]2c3cc4c(cc3[C@@H](O[C@@H]3O[C@@H]5CO[C@@H](C)O[C@H]5[C@H](O)[C@H]3O)[C@H]3COC(=O)[C@H]23)OCO4)cc(OC)c1O [Etoposide, reference compound]
A549 (Lung)
  IC50: 5.4 µM
PC-3 (prostate)
  Human cancer cell lines IC50, PC-3 (prostate): Inactive
HCT (Colon); Homo sapiens
  IC50: 6.5 µM
THP-1 (Leukemia); Homo sapiens, THP-1
  IC50: < 1 µM
HeLa (Cervix); Homo sapiens, HeLa
  IC50: < 1 µM
MCF-7 (Breast cancer); Homo sapiens, MCF7
  IC50: 1.5 µM
DU-145 (prostate)
  Human cancer cell lines IC50, DU-145 (prostate): Inactive
Tubulin protein
  IC50: […]

## CC(=O)O[C@H]1C(=O)[C@@]2(C)[C@H]([C@H](OC(=O)c3ccccc3)[C@]3(O)C[C@H](OC(=O)[C@H](O)[C@@H](NC(=O)c4ccccc4)c4ccccc4)C(C)=C1C3(C)C)[C@]1(OC(C)=O)CO[C@@H]1C[C@@H]2O [Paclitaxel, reference compound]
A549 (Lung); positive control at 1 μM
  inhibition at 1 µM: 69%
